Source: patent publication US9309250B2, “Substituted pyrrolo[2,3-b]pyrazines as ATR kinase inhibitors” (Vertex Pharmaceuticals Incorporated, priority 2011, dated 2016)

target: T1, full-length ATR (Homo sapiens, UniProt Q13535); test: ATR Inhibition Assay (radioactive-phosphate incorporation); assay type: biochemical; conditions: Ki(app); 5 nM full-length ATR, 10 μM ATP, 800 μM target peptide, 25° C.
T1 construct: Assays were carried out at 25° C. in the presence of 5 nM full-length ATR
Protocol: Compounds were screened for their ability to inhibit ATR kinase using a radioactive-phosphate incorporation assay. Assays were carried out in a mixture of 50 mM Tris/HCl (pH 7.5), 10 mM MgCl2 and 1 mM DTT. Final substrate concentrations were 10 μM [γ-33P]ATP (3mCi 33P ATP/mmol ATP, Perkin Elmer) and 800 μM target peptide (ASELPASQPQPFSAKKK) (SEQ. ID. NO: 1).
Assays were carried out at 25° C. in the presence of 5 nM full-length ATR. An assay stock buffer solution was prepared containing all of the reagents listed above, with the exception of ATP and the test compound of interest. 13.5 μL of the stock solution was placed in a 96 well plate followed by addition of 2 μL of DMSO stock containing serial dilutions of the test compound (typically starting from a final concentration of 15 μM with 3-fold serial dilutions) in duplicate (final DMSO concentration 7%). The plate was pre-incubated for 10 minutes at 25° C. and the reaction initiated by addition of 15 μL [γ-33P]ATP (final concentration 10 μM).
The reaction was stopped after […] by the addition of 30 μL 0.1M phosphoric acid containing 2 mM ATP. A multiscreen phosphocellulose filter 96-well plate (Millipore, Cat no. MAPHN0B50) was pretreated with 100 μL 0.2M phosphoric acid prior to the addition of 45 μL of the stopped assay mixture. The plate was washed with 5×200 μL 0.2M phosphoric acid. After drying, 100 μL Optiphase ‘SuperMix’ liquid scintillation cocktail (Perkin Elmer) was added to the well prior to scintillation counting (1450 Microbeta Liquid Scintillation Counter, Wallac).
After removing mean background values for all of the data points, Ki(app) data were calculated from non-linear regression analysis of the initial rate data using the Prism software package (GraphPad Prism version 3.0cx for Macintosh, GraphPad Software, San Diego Calif., USA).
Below is a chart showing the ATR Inhibition Ki values of compounds of the disclosure.

T1 sequence (Q13535 whole entry): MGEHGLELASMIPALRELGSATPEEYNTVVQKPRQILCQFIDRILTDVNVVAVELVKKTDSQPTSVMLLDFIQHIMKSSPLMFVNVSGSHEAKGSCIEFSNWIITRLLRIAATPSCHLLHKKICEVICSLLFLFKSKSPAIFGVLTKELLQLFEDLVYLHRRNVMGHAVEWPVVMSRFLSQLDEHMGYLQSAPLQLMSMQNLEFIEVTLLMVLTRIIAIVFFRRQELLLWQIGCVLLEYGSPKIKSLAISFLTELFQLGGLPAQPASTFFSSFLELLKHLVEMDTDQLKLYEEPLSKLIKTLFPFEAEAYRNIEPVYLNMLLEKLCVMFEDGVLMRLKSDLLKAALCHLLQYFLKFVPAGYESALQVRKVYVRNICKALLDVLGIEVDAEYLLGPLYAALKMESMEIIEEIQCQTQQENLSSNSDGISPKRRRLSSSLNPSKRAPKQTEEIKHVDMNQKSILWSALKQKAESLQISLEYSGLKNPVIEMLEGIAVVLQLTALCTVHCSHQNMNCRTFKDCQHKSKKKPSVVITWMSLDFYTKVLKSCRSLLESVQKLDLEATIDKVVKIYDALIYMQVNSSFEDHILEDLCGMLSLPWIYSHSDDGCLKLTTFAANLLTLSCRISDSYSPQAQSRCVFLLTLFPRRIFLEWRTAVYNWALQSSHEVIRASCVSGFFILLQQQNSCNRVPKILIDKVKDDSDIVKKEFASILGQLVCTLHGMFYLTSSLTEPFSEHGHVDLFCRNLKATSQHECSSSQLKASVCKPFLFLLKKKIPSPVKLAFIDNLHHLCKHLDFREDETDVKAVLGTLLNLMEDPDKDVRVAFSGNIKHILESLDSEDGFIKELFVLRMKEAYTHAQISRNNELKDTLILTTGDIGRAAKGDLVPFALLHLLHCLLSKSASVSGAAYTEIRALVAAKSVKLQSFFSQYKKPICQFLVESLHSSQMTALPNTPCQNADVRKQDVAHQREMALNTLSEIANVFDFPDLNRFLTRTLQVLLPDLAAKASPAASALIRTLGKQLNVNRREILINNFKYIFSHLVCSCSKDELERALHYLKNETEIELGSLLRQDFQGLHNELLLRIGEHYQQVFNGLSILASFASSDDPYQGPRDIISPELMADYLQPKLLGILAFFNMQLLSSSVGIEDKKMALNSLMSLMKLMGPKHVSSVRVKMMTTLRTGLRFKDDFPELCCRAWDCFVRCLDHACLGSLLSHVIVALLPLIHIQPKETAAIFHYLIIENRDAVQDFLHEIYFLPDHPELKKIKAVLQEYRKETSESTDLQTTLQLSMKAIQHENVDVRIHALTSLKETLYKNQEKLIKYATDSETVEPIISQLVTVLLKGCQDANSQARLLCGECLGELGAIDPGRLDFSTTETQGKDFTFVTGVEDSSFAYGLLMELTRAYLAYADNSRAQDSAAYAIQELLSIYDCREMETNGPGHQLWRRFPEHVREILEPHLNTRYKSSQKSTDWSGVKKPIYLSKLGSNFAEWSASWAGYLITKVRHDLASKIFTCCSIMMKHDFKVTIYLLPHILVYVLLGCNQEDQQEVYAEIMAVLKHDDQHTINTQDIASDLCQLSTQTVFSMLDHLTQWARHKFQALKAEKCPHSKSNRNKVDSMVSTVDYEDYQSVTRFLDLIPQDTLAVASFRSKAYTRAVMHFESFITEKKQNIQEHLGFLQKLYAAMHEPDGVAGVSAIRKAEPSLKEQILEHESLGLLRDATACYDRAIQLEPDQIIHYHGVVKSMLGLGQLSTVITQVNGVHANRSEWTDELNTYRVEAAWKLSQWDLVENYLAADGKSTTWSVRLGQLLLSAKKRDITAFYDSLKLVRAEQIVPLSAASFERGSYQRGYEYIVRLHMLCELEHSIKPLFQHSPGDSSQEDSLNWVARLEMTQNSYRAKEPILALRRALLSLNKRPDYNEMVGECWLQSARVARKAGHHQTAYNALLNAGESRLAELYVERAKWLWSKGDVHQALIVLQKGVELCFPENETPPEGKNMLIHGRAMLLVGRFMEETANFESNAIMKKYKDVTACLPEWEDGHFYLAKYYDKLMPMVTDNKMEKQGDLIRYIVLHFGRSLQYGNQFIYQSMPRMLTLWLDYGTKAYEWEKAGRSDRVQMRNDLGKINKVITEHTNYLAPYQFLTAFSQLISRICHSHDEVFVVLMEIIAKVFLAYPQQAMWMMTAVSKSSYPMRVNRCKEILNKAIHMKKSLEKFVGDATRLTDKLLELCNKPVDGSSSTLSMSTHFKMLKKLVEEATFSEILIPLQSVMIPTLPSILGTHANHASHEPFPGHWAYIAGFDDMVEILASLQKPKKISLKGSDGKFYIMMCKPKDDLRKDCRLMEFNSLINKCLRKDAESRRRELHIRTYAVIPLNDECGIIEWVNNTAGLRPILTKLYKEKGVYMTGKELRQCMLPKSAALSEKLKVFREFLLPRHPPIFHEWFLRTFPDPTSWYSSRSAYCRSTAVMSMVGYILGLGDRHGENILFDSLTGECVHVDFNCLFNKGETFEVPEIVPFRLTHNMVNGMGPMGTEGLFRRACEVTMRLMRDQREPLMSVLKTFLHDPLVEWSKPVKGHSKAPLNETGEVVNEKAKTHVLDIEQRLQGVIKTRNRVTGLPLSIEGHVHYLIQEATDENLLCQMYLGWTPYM

Row | Ki [nM] | SMILES
1 | ≤ 50 | CC(C)S(=O)(=O)c1ccc(-c2cnc3[nH]cc(N4Cc5ccc(NCCN(C)C)cc5C4=O)c3n2)cc1 [Compound I-26, 6-((2-(dimethylamino)ethyl)amino)-2-(2-(4-(isopropylsulfonyl)phenyl)-5H-pyrrolo[2,3-b]pyrazin-7-yl)isoindolin-1-one]
2 | ≤ 50 | O=C1c2ccccc2CN1c1c[nH]c2ncc(-c3ccc(S(=O)(=O)C4COC4)cc3)nc12 [Compound I-5, 2-(2-(4-(oxetan-3-ylsulfonyl)phenyl)-5H-pyrrolo[2,3-b]pyrazin-7-yl)isoindolin-1-one]
3 | ≤ 50 | CC(C)S(=O)(=O)c1ccc(-c2cnc3[nH]cc(N4Cc5cccc(Cl)c5C4=O)c3n2)cc1 [Compound I-12, 7-chloro-2-(2-(4-(isopropylsulfonyl)phenyl)-5H-pyrrolo[2,3-b]pyrazin-7-yl)isoindolin-1-one]
4 | ≤ 50 | O=C1c2ccccc2CN1c1c[nH]c2ncc(-c3ccc(S(=O)(=O)C4CCCNC4)cc3)nc12 (stereo not shown) [Compound I-8, 2-(2-(4-(piperidin-3-ylsulfonyl)phenyl)-5H-pyrrolo[2,3-b]pyrazin-7-yl)isoindolin-1-one]
